The test system of data set [1] is Escherichia coli. The experiment in a line: Antimicrobial activity against Escherichia coli DH10B expressing GIL1 after 18 hrs by […]. It is filed as functional. For orientation: Agar diffusion results depend on both activity and mobility in agar.
For data set [2], the system named is Citrobacter gillenii. Nature of the data set: Antimicrobial activity against Citrobacter gillenii CIP 106783 after 18 hrs by […]. It is filed as functional. The settings on record: CIP 106783, 18 h.
Data set [3] deals with T1, Gil1 (Citrobacter gillenii) (UniProt A4KCT8).
T1 sequence (whole entry): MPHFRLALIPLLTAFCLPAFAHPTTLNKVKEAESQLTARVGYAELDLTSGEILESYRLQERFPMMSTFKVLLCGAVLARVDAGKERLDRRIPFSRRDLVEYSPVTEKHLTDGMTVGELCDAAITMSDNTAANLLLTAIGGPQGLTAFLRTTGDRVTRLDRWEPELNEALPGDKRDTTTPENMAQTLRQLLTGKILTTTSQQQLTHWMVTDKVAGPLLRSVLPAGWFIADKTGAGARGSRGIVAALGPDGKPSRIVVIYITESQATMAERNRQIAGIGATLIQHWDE
The experiment in a line: Ratio of kcat to Km of Citrobacter gillenii CIP 106783 Beta-lactamase GIL1 expressed in Escherichia coli DH10B relative to benzyl-penicillin. More on the design: unit not given here.

The subject of data set [4] is Escherichia coli. Nature of the data set: Antimicrobial activity against Escherichia coli DH10B after 18 hrs by […]. It is filed as functional.
Substrate in data set [5]: CC(=O)OCC1=C(C(=O)O)N2C(=O)[C@@H](NC(=O)Cc3cccs3)[C@H]2SC1
Nature of the data set: (§1) Activity of Citrobacter gillenii CIP 106783 Beta-lactamase GIL1 expressed in Escherichia coli DH10B.

Substrate in data set [6]: CC(C)(O/N=C(\C(=O)N[C@@H]1C(=O)N2C(C(=O)[O-])=C(C[n+]3ccccc3)CS[C@H]12)c1csc(N)n1)C(=O)O
The description is as §1.

Substrate in data set [7]: CC1(C)S[C@@H]2[C@H](NC(=O)Cc3ccccc3)C(=O)N2[C@H]1C(=O)O
The data set is described as §1.

Substrate in data set [8]: CC1(C)S[C@@H]2[C@H](NC(=O)[C@H](C(=O)O)c3ccsc3)C(=O)N2[C@H]1C(=O)O
The data set is described as §1.

Substrate in data set [9]: CC1(C)S[C@@H]2[C@H](NC(=O)[C@H](N)c3ccc(O)cc3)C(=O)N2[C@H]1C(=O)O
The description is as §1.

Substrate in data set [10]: CCN1CCN(C(=O)N[C@@H](C(=O)N[C@@H]2C(=O)N3[C@@H]2SC(C)(C)[C@@H]3C(=O)O)c2ccccc2)C(=O)C1=O
The description is as §1.

Substrate in data set [11]: CO/N=C(\C(=O)N[C@@H]1C(=O)N2C(C(=O)O)=C(COC(C)=O)CS[C@H]12)c1csc(N)n1
The description is as §1.

Substrate in data set [12]: CO/N=C(\C(=O)N[C@@H]1C(=O)N2C(C(=O)O)=C(COC(N)=O)CS[C@H]12)c1ccco1
The data set is described as §1.

Substrate in data set [13]: CO/N=C(\C(=O)N[C@@H]1C(=O)N2C(C(=O)[O-])=C(C[N+]3(C)CCCC3)CS[C@H]12)c1csc(N)n1
Described as §1.

Substrate in data set [14]: CO/N=C(\C(=O)N[C@@H]1C(=O)N2C(C(=O)[O-])=C(C[n+]3cccc4c3CCC4)CS[C@H]12)c1csc(N)n1
Described as §1.

Substrate in data set [15]: C[C@@H](O)[C@H]1C(=O)N2C(C(=O)O)=C(SCCNC=N)C[C@H]12
The description is as §1.

Substrate in data set [16]: C[C@H]1[C@H](NC(=O)/C(=N\OC(C)(C)C(=O)O)c2csc(N)n2)C(=O)N1S(=O)(=O)O
The description is as §1.

The MIC is the lowest concentration found to suppress growth. Usually Km stands for the substrate concentration at which the rate is half of its maximum. The kcat is the number of substrate molecules converted per active site and unit of time at saturation. By kcat/Km is commonly meant the turnover number divided by the Michaelis constant.

≈ marks a conversion by molar mass, not a printed value. Where only a bound is given, the exact number is not on record here.

For the molecule `CO/N=C(\C(=O)N[C@@H]1C(=O)N2C(C(=O)[O-])=C(C[N+]3(C)CCCC3)CS[C@H]12)c1csc(N)n1`, the MIC in [1] was 0.12 µg/mL (≈ 0.25 µM); in data set [2], 0.06 µg/mL (≈ 0.125 µM). Also, the Ratio in [3] was found to be 0.5.

Regarding `CC1(C)S[C@@H]2[C@H](NC(=O)Cc3ccccc3)C(=O)N2[C@H]1C(=O)O`, the Ratio in data set [3] amounted to 100.

Take `CC1(C)S[C@@H]2[C@H](NC(=O)[C@H](N)c3ccc(O)cc3)C(=O)N2[C@H]1C(=O)O` [AMOXICILLIN]: the results for the MIC in [1], in data set [2] and in data set [4] were greater than 512 µg/mL, 16 µg/mL (≈ 43.8 µM) and 2 µg/mL (≈ 5.47 µM), respectively. Moreover, the Ratio in [3] worked out at 81.

Turning to `C[C@H]1[C@H](NC(=O)/C(=N\OC(C)(C)C(=O)O)c2csc(N)n2)C(=O)N1S(=O)(=O)O` [AZTREONAM], the MIC in data set [1] is 0.12 µg/mL (≈ 0.276 µM); in data set [2] it was 0.06 µg/mL (≈ 0.138 µM). For the same molecule, the Ratio in [3] came to 0.02.

For the molecule `CO/N=C(\C(=O)N[C@@H]1C(=O)N2C(C(=O)O)=C(COC(C)=O)CS[C@H]12)c1csc(N)n1` [CEFOTAXIME], the MIC in [1] worked out at 1 µg/mL (≈ 2.2 µM); in data set [2] it was 0.06 µg/mL (≈ 0.132 µM); in [4], 0.06 µg/mL (≈ 0.132 µM). Further, the Ratio in data set [3] was determined as 0.2.

Regarding `CO[C@@]1(NC(=O)Cc2cccs2)C(=O)N2C(C(=O)O)=C(COC(N)=O)CS[C@@H]21` [CEFOXITIN], the MIC in [1] amounted to 2 µg/mL (≈ 4.68 µM); in [2] it was 1 µg/mL (≈ 2.34 µM); in data set [4], 2 µg/mL (≈ 4.68 µM).

With `CO/N=C(\C(=O)N[C@@H]1C(=O)N2C(C(=O)[O-])=C(C[n+]3cccc4c3CCC4)CS[C@H]12)c1csc(N)n1` [CEFPIROME], the MIC came out at 0.25 µg/mL (≈ 0.486 µM) in [1], 0.06 µg/mL (≈ 0.117 µM) in data set [2] and 0.06 µg/mL (≈ 0.117 µM) in data set [4]. Besides, the Ratio in [3] is 1.9.

Take `CC(C)(O/N=C(\C(=O)N[C@@H]1C(=O)N2C(C(=O)[O-])=C(C[n+]3ccccc3)CS[C@H]12)c1csc(N)n1)C(=O)O` [CEFTAZIDIME]: the MIC was determined as 0.5 µg/mL (≈ 0.915 µM) in data set [1], 0.06 µg/mL (≈ 0.11 µM) in [2] and 0.06 µg/mL (≈ 0.11 µM) in [4]. The Ratio in data set [3] stood at 0.01.

For `CO/N=C(\C(=O)N[C@@H]1C(=O)N2C(C(=O)O)=C(CSc3nc(=O)c(O)nn3C)CS[C@H]12)c1csc(N)n1` [CEFTRIAXONE], the MIC in data set [1], in data set [2] and in data set [4] was 0.06 µg/mL (≈ 0.108 µM) throughout.

`CO/N=C(\C(=O)N[C@@H]1C(=O)N2C(C(=O)O)=C(COC(N)=O)CS[C@H]12)c1ccco1` [CEFUROXIME]: the MIC came out at 8 µg/mL (≈ 18.9 µM) in [1], 2 µg/mL (≈ 4.71 µM) in data set [2] and 2 µg/mL (≈ 4.71 µM) in data set [4]. Moreover, in data set [3], the Ratio was found to be 0.4.

For the molecule `CC(=O)OCC1=C(C(=O)O)N2C(=O)[C@@H](NC(=O)Cc3cccs3)[C@H]2SC1` [CEPHALOTHIN], the MIC in [1] was 8 µg/mL (≈ 20.2 µM); in data set [2], 2 µg/mL (≈ 5.04 µM); in data set [4] it was 2 µg/mL (≈ 5.04 µM). The Ratio in data set [3] was 11.

For `C[C@@H](O)[C@H]1C(=O)N2C(C(=O)O)=C(SCCNC=N)C[C@H]12` [IMIPENEM ANHYDROUS], the MIC in data set [2] stood at 0.06 µg/mL (≈ 0.2 µM). The Ratio in data set [3] was less than 0.01.

Turning to `CO[C@@]1(NC(=O)C(C(=O)O)c2ccc(O)cc2)C(=O)N2C(C(=O)O)=C(CSc3nnnn3C)CO[C@@H]21` (stereo partly specified) [MOXALACTAM], the MIC came out at 0.25 µg/mL (≈ 0.48 µM) in data set [1], 0.12 µg/mL (≈ 0.231 µM) in data set [2] and 0.12 µg/mL (≈ 0.231 µM) in data set [4].

Take `CCN1CCN(C(=O)N[C@@H](C(=O)N[C@@H]2C(=O)N3[C@@H]2SC(C)(C)[C@@H]3C(=O)O)c2ccccc2)C(=O)C1=O` [PIPERACILLIN]: the MIC in data set [1] amounted to 32 µg/mL (≈ 61.8 µM); in data set [2] it was 2 µg/mL (≈ 3.86 µM); in data set [4], 1 µg/mL (≈ 1.93 µM). Moreover, in data set [3], the Ratio worked out at 61.

In the case of `CC1(C)S[C@@H]2[C@H](NC(=O)[C@H](C(=O)O)c3ccsc3)C(=O)N2[C@H]1C(=O)O` [TICARCILLIN], the values for the MIC in data set [1], in data set [2] and in data set [4] were greater than 512 µg/mL, 64 µg/mL (≈ 166 µM) and 1 µg/mL (≈ 2.6 µM), respectively. In data set [3], the Ratio is 180.

B1: Gil1 (Citrobacter gillenii), A4KCT8 (protein)
chain: T1 sequence (whole entry)
With B1, the Km in data set [5] came to 62 µM; in data set [6], 1750 µM; in data set [7], 51 µM; in [8], 10 µM; in data set [9], 84 µM; in data set [10], 90 µM. In addition, the Km in data set [11] is 714 µM; in [12], 88 µM; in [13] it was 2680 µM; in data set [14] it was 304 µM; in data set [15], 2980 µM; in data set [16], 938 µM. The catalytic constant (kcat) in data set [5] is 37 s⁻¹; in data set [6], 1 s⁻¹; in data set [7], 286 s⁻¹; in data set [8], 100 s⁻¹; in data set [9] it was 381 s⁻¹; in [10], 306 s⁻¹. The kcat in [11] came to 7 s⁻¹; in [12], 2 s⁻¹; in [13] it was 77 s⁻¹; in data set [14], 32 s⁻¹; in data set [15], 0.2 s⁻¹; in data set [16], 0.8 s⁻¹. The kcat/Km in data set [5] is 598000 M⁻¹ s⁻¹; in [6], 600 M⁻¹ s⁻¹; in data set [7], 5.6e+06 M⁻¹ s⁻¹; in [8], 1e+07 M⁻¹ s⁻¹; in data set [9] it was 4.54e+06 M⁻¹ s⁻¹; in [10], 3.4e+06 M⁻¹ s⁻¹. Moreover, the kcat/Km in data set [11] was determined as 10000 M⁻¹ s⁻¹; in [12] it was 23000 M⁻¹ s⁻¹; in data set [13], 29000 M⁻¹ s⁻¹; in data set [14], 106000 M⁻¹ s⁻¹; in data set [15], 500 M⁻¹ s⁻¹; in [16], 1000 M⁻¹ s⁻¹.

The values are drawn from ChEMBL document CHEMBL1147095, “Chromosome-encoded narrow-spectrum Ambler class A beta-lactamase GIL-1 from Citrobacter gillenii” (Antimicrob Agents Chemother, 2007).
